From article PMC4620681 (Bioorganic & medicinal chemistry letters, 2015)

Key:
hKOR = hKOR (Homo sapiens, UniProt P41145); assay: biochemical; format: biochemical; details: for Emax at 1 µM: read-out: Emax at 1 μM (percentage of maximal response to U50,488H); for Emax: read-out: Emax (percentage of maximal response to U50,488H)
human KOR (hKOR) = human KOR (hKOR) (Homo sapiens, UniProt P41145); details: cited from earlier work
Chain of human KOR (hKOR) (P41145 whole entry): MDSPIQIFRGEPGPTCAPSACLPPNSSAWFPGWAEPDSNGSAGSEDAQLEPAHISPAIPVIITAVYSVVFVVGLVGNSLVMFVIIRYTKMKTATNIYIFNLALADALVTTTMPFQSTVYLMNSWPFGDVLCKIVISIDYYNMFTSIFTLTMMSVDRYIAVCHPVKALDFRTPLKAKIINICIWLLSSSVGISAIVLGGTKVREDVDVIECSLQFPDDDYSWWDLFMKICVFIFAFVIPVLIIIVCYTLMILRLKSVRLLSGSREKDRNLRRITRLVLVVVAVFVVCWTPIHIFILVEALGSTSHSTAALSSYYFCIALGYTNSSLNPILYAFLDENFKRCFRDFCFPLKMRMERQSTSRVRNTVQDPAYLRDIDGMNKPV

Chain of hKOR (P41145 whole entry): as above

SMILES | Emax at 1 µM (hKOR) [%] | other results
COC[C@@]1(CCOCCI)C[C@@H](C(=O)OC)[C@]2(C)CC[C@H]3C(=O)O[C@H](c4ccoc4)C[C@]3(C)[C@H]2C1=O [Compound 14a] | 98 | –
C=CC[C@]1(COC)C[C@@H](C(=O)OC)[C@]2(C)CC[C@H]3C(=O)O[C@H](c4ccoc4)C[C@]3(C)[C@H]2C1=O [Compound 12a] | 99 | –
COC[C@@]1(CCOCCI)C[C@@H](C(=O)OC)[C@]2(C)CC[C@@H]3C(=O)O[C@H](c4ccoc4)C[C@]3(C)[C@H]2C1=O [Compound 14b] | 85 | –
C=CC[C@]1(COC)C[C@@H](C(=O)OC)[C@]2(C)CC[C@@H]3C(=O)O[C@H](c4ccoc4)C[C@]3(C)[C@H]2C1=O [Compound 12b] | 84 | –
CC[C@]1(COC)C[C@@H](C(=O)OC)[C@]2(C)CC[C@@H]3C(=O)O[C@H](c4ccoc4)C[C@]3(C)[C@H]2C1=O [Compound 10b] | 81 | –
COC[C@@]1(C)C[C@@H](C(=O)OC)[C@]2(C)CC[C@H]3C(=O)O[C@H](c4ccoc4)C[C@]3(C)[C@H]2C1=O [Compound 9a, 2-methyl-2-methoxymethyl-salvinorin ether] | – | agonist / antagonist activity at KOR (hKOR): potent full agonist; Emax (hKOR): 123 ± 16%
COC(=O)[C@@H]1C[C@H](O)C(=O)[C@H]2[C@@]1(C)CC[C@H]1C(=O)O[C@H](c3ccoc3)C[C@]21C [Compound 2, Salvinorin B] | – | affinity to KOR (in words) (human KOR (hKOR)): comparatively much lower affinity; fold lower affinity than its epimer (human KOR (hKOR)): 3 fold
CC[C@]1(COC)C[C@@H](C(=O)OC)[C@]2(C)CC[C@H]3C(=O)O[C@H](c4ccoc4)C[C@]3(C)[C@H]2C1=O [Compound 10a] | 83 | –
COC[C@@]1(C)C[C@@H](C(=O)OC)[C@]2(C)CC[C@@H]3C(=O)O[C@H](c4ccoc4)C[C@]3(C)[C@H]2C1=O [Compound 9b] | – | Emax (hKOR): 103 ± 16%
